Measurements: a melting point compilation (Tetko et al.; mined from patent text by program, amines drawn as free bases though some values may be those of a salt)

Compared with `O=C(NCc1ccc(Cl)cc1)c1cnc2ccc(CN3CCOCC3)cc2c1O`, `Cc1nc(-c2cn(Cc3ccc(F)cc3)nn2)sc1C(=O)NCc1ccccc1` is lower in melting point: 219 to 220 °C for the first, 114 to 115 °C for the second.

Compared with `Fc1ccc(N2CCC(N3CCc4ccccc43)CC2)cc1`, `O=C1Nc2cccnc2N(CC#CCN2CCCC2)c2ccccc21` is higher in melting point: 120 to 122 °C for the first, 153 °C for the second.

First: Cc1ccccc1-c1nc(-c2ccc(-c3ccccc3)cc2)n[nH]1
Second: COc1ccc(C(=O)c2ccc(OCc3nc(-c4ccccc4)oc3C)cc2)c(OC(C(=O)O)C(C)C)c1 (stereo not drawn)
The melting point of the first is higher: 165 to 167 °C for the first, 87 to 88 °C for the second.

First: CC1COc2c(N3CCSCC3)c(F)cc3c(=O)c(C(=O)O)cn1c23 (stereo not drawn)
Second: Cc1c(N2CC3(CC3)[C@](C)(N)C2)ccc2c(=O)c(C(=O)O)cn(C3CC3)c12
The melting point of the first is higher: greater than 300 °C for the first, 227 to 230 °C for the second.

First: NC(=O)[C@H]1[C@H](CS)N(Cc2ccccc2)C(=O)N1Cc1ccccc1
Second: O=C(NN=Cc1ccncc1)OCc1ccccc1
The melting point of the first is lower: 119 to 122 °C for the first, 134 °C for the second.

Compared with `Cc1cc(O)c(O)cc1S(=O)(=O)c1ccc(F)cc1`, `COc1cc(O)cc2cc(-c3ccc(O)cc3)oc12` is lower in melting point: 175 to 177 °C for the first, 167 to 168 °C for the second.

First: CC(C)(C)OC(=O)c1ncn2c1C1CCCN1C(=O)c1ncccc1-2 (stereo not drawn)
Second: Cn1c(OCC(F)(F)F)nn(C(=O)Oc2ccccc2)c1=O
The melting point of the first is higher: 230 to 231 °C for the first, 105 °C for the second.

First: O=C(NC1CCC(CCN2CCN(c3nccc4c3OCC4)CC2)CC1)C(O)C(F)(F)F (racemic)
Second: COc1ccc(OCC(F)(F)F)cc1N1CCN(CCCNC(=O)c2c(-c3ccccc3)noc2C)CC1
The melting point of the first is higher: 185 °C for the first, 125 °C for the second.

Compared with `O=C(c1ccc([N+](=O)[O-])cc1)N1CCCCc2sccc21`, `CC(=O)c1ccc(C(=O)Nc2ccc(C(C)(C)C)cc2)cc1` is higher in melting point: 141 to 142 °C for the first, 183 to 184 °C for the second.

First: O=S(=O)(Cl)c1ccc(SSc2ccc(S(=O)(=O)Cl)cc2)cc1
Second: O=C1C(Cl)=C(N2CCN(S(=O)(=O)c3ccccc3C(F)(F)F)CC2)C(=O)c2ccccc21
The melting point of the first is higher: 139 °C for the first, 122 to 124 °C for the second.

Compared with `COC(=O)CN(C=O)C1c2ccccc2CC1(C)C` (stereo not drawn), `COc1ccc(CC(O)C(=O)c2ccccc2)cc1` (stereo not drawn) is lower in melting point: 172 to 173 °C for the first, 100 °C for the second.

First: O=C(O)c1ccc2oc(=O)n(Cc3ccc4[nH]c(=O)[nH]c4c3)c2c1
Second: COC(=O)c1ccc2c(c1)CN(c1cc3c(cc1F)c(=O)c(C(=O)O)cn3C1CC1)C2
The melting point of the first is lower: 230 to 231 °C for the first, 279 to 285 °C for the second.

Compared with `CC(C)(O)C#Cc1c(F)c(F)c(-c2c(F)c(F)c(C#CC(C)(C)O)c(F)c2F)c(F)c1F`, `CCOC(=O)n1c(SC(F)(F)C(F)F)nc(-c2ccc(F)cc2)c1-c1ccc(F)cc1` is higher in melting point: 119 to 121 °C for the first, 137 to 139 °C for the second.

First: CC(=O)c1cnn(-c2ccnc3cc(Cl)ccc23)c1
Second: O=[N+]([O-])c1cnc2ccccc2c1Cl
The melting point of the first is higher: 190 to 192 °C for the first, 118 to 119 °C for the second.

First: COc1ccc(CC(C#N)C(=O)O)cc1 (stereo not drawn)
Second: CC(C)(O)c1ccc(CC(=O)Nc2cccnc2Oc2cccc(C#N)c2)cc1
The melting point of the first is lower: 94 to 95 °C for the first, 97 to 99 °C for the second.

First: COc1ccc(C2Sc3c(ccc4ccccc34)N(CCCN(C)C)C(=O)C2O)cc1 (stereo not drawn)
Second: COc1ccc2c(c1)C(C(=O)N(Cc1ccc(N)cc1)c1ccc(C(C)C)cc1)CCC2 (stereo not drawn)
The melting point of the first is higher: 123 to 124 °C for the first, 115 to 117 °C for the second.

First: O=C1CCNc2nc(Br)ccc21
Second: CCOC(=O)Cc1csc(-c2cccc(Br)c2)n1
The melting point of the first is higher: 196 to 197 °C for the first, 65 to 70 °C for the second.

First: CCCc1nc(C=NNC(=O)OCC)c(C)[nH]1
Second: CCCN(CCC)C1COc2cccc(C(=O)C(C)C)c2C1 (stereo not drawn)
The melting point of the first is higher: 184 to 188 °C for the first, 60 to 62 °C for the second.

First: COc1cc(C)ccc1-c1nc(C)c(-c2cccnc2)[nH]1
Second: CN(C)C(=N)Nc1ccccc1-c1cccc(F)c1
The melting point of the first is higher: 125 to 128 °C for the first, 109 to 110 °C for the second.

First: Cn1nnnc1CN1CCC[C@@H](OCc2cc(C(F)(F)F)cc(C(F)(F)F)c2)[C@H]1c1ccccc1 (relative stereo)
Second: Cc1cc(C2=C(Cl)CCN(C(=O)c3ccccc3)C2)no1
The melting point of the first is lower: 75 to 77 °C for the first, 86 to 87 °C for the second.

First: O=C(c1ccc(Br)cc1)N(C1CCCCC1)C1CCCC1
Second: CN1CCN(c2ccc3c(ccc4c(=O)cc(C(=O)Nc5ccc(N6CCOCC6)cc5)oc43)c2)CC1
The melting point of the first is lower: 110 to 112 °C for the first, 217 to 218 °C for the second.

First: CCOC(=O)CN(Cc1ccccc1)C(=S)CCc1nc2c(F)c(F)cc(F)c2s1
Second: N#Cc1cccc(NCc2nc3ccc(F)cc3c(=O)n2-c2ccccc2Cl)c1
The melting point of the first is lower: 86 to 88 °C for the first, 225 to 228 °C for the second.

First: O=C1CSC(=S)N1N=c1sc2ccc([N+](=O)[O-])cc2s1
Second: N#Cc1c(N)ccc(C(=O)CBr)c1Cl
The melting point of the first is higher: 315 °C for the first, 180 to 207 °C for the second.

Compared with `CCSC(=O)CCS(=O)(=O)CC`, `O=C(O)CCCOc1cccc(CCCCCCOc2ccc3c(c2C/C=C/c2ccccc2)CCCC3=O)c1CCC(=O)O` is higher in melting point: 35 to 36 °C for the first, 102 to 104 °C for the second.
